In patent US20160194336A1, “P38 MAPK INHIBITORS FOR THE TREATMENT OF INFLAMMATORY DISEASES” (ALLINKY BIOPHARMA, priority 2012, published 2016) one finds Cell survival and inhibition data, which are given here for 15 compounds.

The test system of one series is THP-1 cells. Kind of series: survival of monocytes with LPS. The format is cell-based, human.
Another series addresses T1, p38alpha wt (Homo sapiens, UniProt Q16539).
T1 construct: made in house; host or cells: E. coli XL10-Gold
In words: site-mutated p38 phosphorylation cascade assay, wild type. The format is biochemical. The following applies: compound 10 uM. On the procedure: (§1) After preincubation, MKK6 (ProQinase), ATF2 (ProQinase) and ATP were added to a final concentration of 10 nM, 5 μM and 10 μM respectively, then incubated 40 minutes at 30° C. and analyzed with ADP-Glo™.
(§2) Replacement of specific residues arginine 186 and 189 of p38α (pGEX4T-1-p38α) for alanine was performed with the QuikChange Lightining Site-Directed Mutagenesis Kit (Agilent Technologies). The following oligonucleotides were used for the arginine 186 to alanine substitution: forward primer: 5′-SEQ ID NO 7-3′; reverse primer: 5′-SEQ ID NO 8-3′. Oligonucleotides used for the arginine 189 to alanine substitution were: forward primer: 5′-SEQ ID NO 9-3′; reverse primer: 5′-SEQ ID NO 10-3′. Mutations were validated by sequencing (Genomic Unit, Parque Cientifico de Madrid). E. coli XL10-Gold ultracompentent cells (Agilent Technologies) were transformed with the vector plasmids containing p38αWT and mutants. For the expression of recombinant p38α transformed cells were cultured overnight at 37° C. in 50 ml of fresh LB medium containing ampicillin (100 μg/ml). After that, culture was diluted in fresh LB to A595=0.4 and grown for approximately 1 h at 37° C. until exponential growth and then induced with Isopropyl-β-D-thiogalactopyranoside (IPTG) 1 mM for 5 h. The cells were collected by centrifugation and cell pellet were resuspended in 50 ml of cold lysis buffer: PBS pH 7.4, EDTA 10 mM, PMSF 1 mM, Benzamidine 0.2 mM, DTT 5 mM, Triton X-100 1% and Lysozyme 1 mg/ml. The soluble and insoluble fractions were separated by centrifugation (16,000 g for 20 min). The soluble fraction was incubated for 2 hours with 1 ml of pre-equilibrated Glutathione Sepharose 4B (GE Healthcare) and the resin was extensively washed in a column with 200 ml of binding buffer: PBS, PMSF 1 mM and benzamidine 0.2 mM. Proteins were eluted with 1 ml of Tris-HCl 50 mM pH 8.0 and reduced glutathione 20 mM. 20% glycerol was added to purified proteins and stored at −80° C. Protein concentration and purity was assessed by SDS-PAGE. Kinase activity was measured by ADP-glo kit using MKK6 as activator and ATF2 as substrate. Activity recorded for p38αR186A and p38αR189A were 15.5% and 4.8%, respectively (n=4) related to wild type protein.

Another series has as its target T2, p38αR189A (Homo sapiens, UniProt Q16539, R189A).
T2 construct: made in house; host or cells: E. coli XL10-Gold
Kind of series: site-mutated p38 phosphorylation cascade assay, R189A mutant. The following applies: compound 10 uM. Type of series: biochemical. The method, then: as §1, §2

Series [1] concerns TNF-α secretion, THP-1 cells. In words: Inhibition of TNF-α secretion by LPS-stimulated THP-1. Type of series: cell-based. The following applies: Homo sapiens, THP-1, 3 h, monocytes with LPS, read-out: TNF abetment. The method, then: Inhibition of TNF-α Secretion by a Human Monocytic Cell Line, THP-1.
THP-1 cells, growing in log phase, were collected by centrifugation and resuspended in RPMI 1640 (Sigma Aldrich), to a final cell concentration of 2×10^6 cells/ml. Cells were plated into 24-well plates (BD Biosciences). Dilutions of compounds in dimethyl sulfoxide (DMSO) were added to the culture to a final concentration M. The final DMSO concentration was 0.5%. The cells […] suspensions were preincubated with compounds for 1 h at 37° C. in a 5% C02 humidified atmosphere before the addition of LPS (Sigma Aldrich, L2654) to a final concentration of 2 μg/ml. After that, cells were incubated for 3 h followed by centrifugation to pellet cells. Cell supernatants were stored at 4° C. until Human analysis for TNF-α content. TNF-α levels were determined by ELISA (TNF Biotrak, GE Healthcare) following the manufacturer's directions. The percentage inhibition was calculated for each compound concentration tested, and the IC50 was calculated for each compound.

The target of the next series is T3, p38αR186A (Homo sapiens, UniProt Q16539, R186A).
T3 construct: made in house; host or cells: E. coli XL10-Gold
T3 sequence (Q16539 whole entry R186A): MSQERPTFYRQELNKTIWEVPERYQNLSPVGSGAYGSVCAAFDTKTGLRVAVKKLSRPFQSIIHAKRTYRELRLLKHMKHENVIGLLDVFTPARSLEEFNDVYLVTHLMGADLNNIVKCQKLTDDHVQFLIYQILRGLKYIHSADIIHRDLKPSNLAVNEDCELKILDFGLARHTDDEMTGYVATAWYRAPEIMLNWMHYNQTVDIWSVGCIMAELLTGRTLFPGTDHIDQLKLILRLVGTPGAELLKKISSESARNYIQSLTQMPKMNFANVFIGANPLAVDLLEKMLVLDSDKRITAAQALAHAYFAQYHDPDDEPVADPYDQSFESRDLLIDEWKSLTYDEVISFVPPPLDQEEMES
In words: site-mutated p38 phosphorylation cascade assay, R186A mutant. The format is biochemical. To be noted: compound 10 uM. On the procedure: as §1, §2

T2 sequence (Q16539 whole entry R189A): as the sequence (Q16539 whole entry R186A) above, with A186R, R189A counted along it
T1 sequence (Q16539 whole entry): as the sequence (Q16539 whole entry R186A) above, with A186R counted along it

As for `COC(=O)c1ccc(Nc2nc3nonc3nc2N2CCC(Oc3ccc(Cl)cc3)CC2)cc1` [Compound 31], the Cell survival is on record as 101% in the series with THP-1 cells (0.1 uM), 100% with THP-1 cells (1 uM) and 92% in the series with THP-1 cells (10 uM). The inhibition at 10 µM on p38alpha wt was 84%; against p38αR189A it was 27%; in series [1], 60%; against p38αR186A, 35%. Besides, the inhibition at 0.1 µM in series [1] worked out at 20%. Moreover, in series [1], the inhibition at 1 µM stood at 43%.
`CCOC(=O)c1ccc(Nc2nc3nonc3nc2NN=Cc2cccc3ccccc23)cc1` [Compound 12]: the Cell survival is reported as 97% with THP-1 cells (1 uM) and 99% in the series with THP-1 cells (10 uM). The inhibition at 10 µM was 81% against p38alpha wt, 14% against p38αR189A, -16% in series [1] and 39% on p38αR186A. For the same compound, the inhibition at 1 µM in series [1] is -6%.
With `CCOC(=O)c1ccc(Nc2nc3nonc3nc2N2CCC(Sc3ccc(C)cc3)CC2)cc1` [Compound 15], the Cell survival was determined as 92% with THP-1 cells (1 uM) and 97% in the series with THP-1 cells (10 uM). In addition, the inhibition at 10 µM on p38alpha wt amounted to 61%; against p38αR189A, 20%; in series [1], 32%; on p38αR186A it was 28%. In series [1], the inhibition at 1 µM amounted to 17%.
`CCCNC(=O)c1ccc(Nc2nc3nonc3nc2N2CCC(Cc3ccccc3)CC2)cc1` [Compound 19]: the Cell survival with THP-1 cells (0.1 uM) is listed as 103%; in the series on THP-1 cells (1 uM) it was 97%; with THP-1 cells (10 uM) it was 93%. Also, the inhibition at 10 µM on p38alpha wt is 71%; against p38αR189A, 32%; in series [1], -10%; against p38αR186A, 35%. Moreover, the inhibition at 0.1 µM in series [1] was -47%. For the same compound, in series [1], the inhibition at 1 µM was -21%.
Turning to `CCOC(=O)c1ccc(NNc2nc3nonc3nc2N2CCC(Cc3ccccc3)CC2)cc1` [Compound 24], the Cell survival is given as 104% in the series with THP-1 cells (0.1 uM), 98% in the series on THP-1 cells (1 uM) and 105% with THP-1 cells (10 uM). Also, the inhibition at 10 µM on p38alpha wt worked out at 66%; against p38αR189A it was 39%; in series [1], 67%; on p38αR186A, 43%. For the same compound, in series [1], the inhibition at 0.1 µM was -23%. Besides, in series [1], the inhibition at 1 µM is 12%.
On to `CCOC(=O)c1ccc(Nc2nc3nonc3nc2N2CCN(Cc3cccc(Cl)c3)CC2)cc1` [Compound 13], for which the Cell survival with THP-1 cells (1 uM) is recorded as 93%; in the series on THP-1 cells (10 uM), 86%. In addition, the inhibition at 10 µM against p38alpha wt is 34%; at p38αR189A, 14%; in series [1], 32%; on p38αR186A it was 22%. Further, the inhibition at 1 µM in series [1] was found to be 13%.
Turning to `CCOC(=O)c1ccc(Nc2nc3nonc3nc2N2CCC(C(=O)c3ccccc3)CC2)cc1` [Compound 17], the Cell survival in the series on THP-1 cells (0.1 uM) is listed as 99%; in the series on THP-1 cells (1 uM), 98%; in the series with THP-1 cells (10 uM), 97%. Besides, the inhibition at 10 µM against p38alpha wt worked out at 56%; against p38αR189A, 13%; in series [1], 69%; against p38αR186A, 19%. In series [1], the inhibition at 0.1 µM turned out to be 21%. Besides, in series [1], the inhibition at 1 µM came to 34%.
As to `CCCNC(=O)c1ccc(Nc2nc3nonc3nc2N2CCC(Sc3ccc(C)cc3)CC2)cc1` [Compound 23], the Cell survival was determined as 96% in the series on THP-1 cells (0.1 uM), 95% in the series on THP-1 cells (1 uM) and 88% in the series on THP-1 cells (10 uM). Also, the inhibition at 10 µM on p38alpha wt turned out to be 90%; at p38αR189A, 26%; in series [1], 60%; against p38αR186A, 48%. For the same compound, the inhibition at 0.1 µM in series [1] came to 26%. Besides, in series [1], the inhibition at 1 µM was found to be 41%.
As for `O=C([O][Na+])c1ccc(Nc2nc3nonc3nc2N2CCC(Cc3ccccc3)CC2)cc1` [Compound 30], the values for the Cell survival with THP-1 cells (0.1 uM), in the series with THP-1 cells (1 uM) and with THP-1 cells (10 uM) were 99%, 97% and 93%, respectively. The inhibition at 10 µM on p38alpha wt turned out to be 25%; against p38αR189A it was 9%; in series [1] it was 41%; against p38αR186A it was 19%. In addition, in series [1], the inhibition at 0.1 µM worked out at 12%. Moreover, the inhibition at 1 µM in series [1] was 16%.
For `CCOC(=O)c1ccc(Nc2nc3nonc3nc2N2CCC(Sc3ccc(Cl)cc3)CC2)cc1` [Compound 28], the results for the Cell survival with THP-1 cells (0.1 uM), with THP-1 cells (1 uM) and in the series with THP-1 cells (10 uM) were 88%, 87% and 88%, respectively. For the same compound, the inhibition at 10 µM at p38alpha wt came to 86%; against p38αR189A, 27%; in series [1], 36%; against p38αR186A it was 41%. Also, the inhibition at 0.1 µM in series [1] is 17%. Also, the inhibition at 1 µM in series [1] came to 24%.
As for `CCOC(=O)c1ccc(Nc2nc3nonc3nc2N2CCN(Cc3ccccc3C)CC2)cc1` [Compound 14], the Cell survival with THP-1 cells (10 uM) is recorded as 81%. In addition, the inhibition at 10 µM against p38alpha wt was determined as 31%; against p38αR189A, 17%; in series [1], 17%; against p38αR186A, 18%.
`CC(C)NC(=O)c1ccc(Nc2nc3nonc3nc2N2CCC(Cc3ccccc3)CC2)cc1` [Compound 18]: the Cell survival in the series with THP-1 cells (0.1 uM) is listed as 90%; with THP-1 cells (1 uM) it was 83%; in the series with THP-1 cells (10 uM), 79%. Also, the inhibition at 10 µM on p38alpha wt worked out at 62%; at p38αR189A, 33%; in series [1] it was 56%; at p38αR186A, 37%. Besides, in series [1], the inhibition at 0.1 µM came to 1%. For the same compound, the inhibition at 1 µM in series [1] was found to be 34%.
With `Cc1ccc(SC2CCN(c3nc4nonc4nc3-c3cccc(C(=O)OC(C)C)c3)CC2)cc1` [Compound 22], the Cell survival with THP-1 cells (0.1 uM) is recorded as 97%; with THP-1 cells (1 uM) it was 94%; in the series with THP-1 cells (10 uM) it was 99%. Moreover, the inhibition at 10 µM against p38alpha wt amounted to 31%; against p38αR189A it was 6%; in series [1], 10%; on p38αR186A it was 16%. Besides, the inhibition at 0.1 µM in series [1] was -2%. The inhibition at 1 µM in series [1] was 17%.
For `CCOC(=O)c1ccc(Nc2nc3nonc3nc2Nc2ccc(Oc3ccncc3)cc2)cc1` [Compound 27], the Cell survival is 103% with THP-1 cells (0.1 uM), 99% in the series on THP-1 cells (1 uM) and 72% with THP-1 cells (10 uM). Also, the inhibition at 10 µM against p38alpha wt was 88%; at p38αR189A, 47%; in series [1], 76%; against p38αR186A it was 72%. Besides, in series [1], the inhibition at 0.1 µM amounted to 28%. Besides, the inhibition at 1 µM in series [1] is 58%.
On to `O=C(O)c1ccc(Nc2nc3nonc3nc2N2CCC(Cc3ccccc3)CC2)cc1` [Compound 29], for which the Cell survival with THP-1 cells (0.1 uM) came to 103%; with THP-1 cells (1 uM), 103%; in the series on THP-1 cells (10 uM), 92%. The inhibition at 10 µM was 23% at p38alpha wt, 6% against p38αR189A, 44% in series [1] and 21% on p38αR186A. Besides, in series [1], the inhibition at 0.1 µM was 7%. Moreover, the inhibition at 1 µM in series [1] amounted to 11%.
